Experimental data taken from patent publication US7635703B2, “Imidazole substituted pyrazole kinase inhibitors” (Janssen Pharmaceutica N.V., priority 2006, dated 2009).

Experiments:
[1] = target: T1, HER2 (GST/HIS6 fusion, amino acids 679 to 1255 of HER-2) (Homo sapiens, UniProt P04626); assay: HER2 screening assay (33P-ATP FlashPlate); format: biochemical; conditions: 10 μM ATP, 1 hr at 30° C.
T1 construct: GST (Glutathione-S-Transferase) (N); HIS6 (N); thrombin cleavage site (N); purchased Proqinase, Freiburg, Germany
T1 sequence (P04626 679-1255): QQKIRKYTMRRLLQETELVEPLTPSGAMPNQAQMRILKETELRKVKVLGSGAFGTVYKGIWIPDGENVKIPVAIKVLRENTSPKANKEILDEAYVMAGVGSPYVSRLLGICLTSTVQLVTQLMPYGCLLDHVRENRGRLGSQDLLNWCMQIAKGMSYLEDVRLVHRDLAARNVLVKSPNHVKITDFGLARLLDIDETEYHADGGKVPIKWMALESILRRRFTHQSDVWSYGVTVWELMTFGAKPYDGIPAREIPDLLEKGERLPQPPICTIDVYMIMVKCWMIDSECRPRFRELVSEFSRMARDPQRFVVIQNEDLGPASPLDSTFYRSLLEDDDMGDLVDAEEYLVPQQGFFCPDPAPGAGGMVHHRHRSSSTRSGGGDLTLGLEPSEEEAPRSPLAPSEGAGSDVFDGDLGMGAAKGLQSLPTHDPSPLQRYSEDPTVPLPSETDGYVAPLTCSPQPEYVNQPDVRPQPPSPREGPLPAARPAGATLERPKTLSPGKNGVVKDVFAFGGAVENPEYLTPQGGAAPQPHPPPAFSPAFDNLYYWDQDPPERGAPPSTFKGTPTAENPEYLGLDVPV
Procedure: (§1) A kinase reaction mixture was prepared containing 50 mM Tris-HCl pH=8, 10 mM MgCl2, 0.1 mM […], 1 mM DTT, 10 μM ATP, 0.025 μM biotinylated histone-H1 peptide substrate and 0.2 μCuries per well ^33P-γ-ATP (2000-3000 Ci/mmol). 70 μL of the kinase reaction mixture was dispensed into the well of a streptavidin coated FlashPlate™ (Cat. # SMP103, NEN, Boston, Mass.).
(§2) Test compound stock in 100% DMSO (1 μL) was added to the wells resulting in a final concentration of 1% DMSO in the reaction with a 100 μL final reaction volume. Each enzyme was diluted in 50 mM Tris-HCl pH=8.0, 0.1% BSA and 30 μL was added to each well to initiate the reaction. The reaction was incubated for one hour at 30° C. At the end of the 1 hr incubation, the reaction was terminated by aspirating the mixture from the plate and washing the wells twice with PBS containing 100 mM EDTA. The biotinylated peptide substrate became immobilized on the Flashplate™ and the incorporation of ^33P-γ-ATP was measured by reading the plate on a scintillation counter. Inhibition of the enzymatic activity was measured by observing a reduced amount of ^33P-γ-ATP incorporated into the immobilized peptide.
The HER2 construct consisted of a fusion of GST (Glutathione-S-Transferase), HIS6 Thrombin and the nucleotides encoding amino acids 679 to 1255 of HER-2 (Accession number M11730) (Proqinase, Freiburg, Germany). The assay used 200 ng of the N-terminal biotinylated peptide biotin-poly(GT) 4:1 (HER2) per well.
(§3) A maximum and minimum signal for the assay was determined on each plate. The percent inhibition of a test compound was calculated according to the formula: […]

HCT-116 colon carcinoma = assay: Cell proliferation inhibition assay (14C-thymidine incorporation), HCT-116; format: cell-based; conditions: Homo sapiens, HCT-116 cells
From the text: (§4) The ability of a test compound to inhibit unregulated cell proliferation may be determined by measuring incorporation of ^14C-labelled thymidine into newly synthesized DNA within cell lines derived from carcinomas originating from several tissues. Accordingly, the anti-proliferative effect of a compound on cells with a variety of phenotypes may be determined.
(§5) Carcinoma cell lines include those such as HeLa cervical adenocarcinoma (American Type Culture Collection (ATCC), Virginia, Cat. #CCL-2), A375 malignant melanoma (ATCC CRL-1619), and HCT-116 colon carcinoma (CCL-247).
(§6) The carcinoma cells are trypsinized and counted. The cells (3000-8000 count) are added to each well of a 96-well CytoStar tissue culture treated scintillating microplate (Amersham #RPNQ0160) in complete medium (100 μL) and the plate is then incubated in complete medium for 24 hrs at 37° C. in an inert atmosphere containing 5% CO2. Test compound (1 μL) in 100% DMSO is added to the plate test-wells with DMSO only added to control-wells. The plate is incubated in complete medium for a second 24 hr period at 37° C. in an atmosphere containing 5% CO2.
(§7) An aliquot of a solution of Methyl ^14C-thymidine (56 mC/mmol) (NEN #NEC568 or Amersham #CFA532) and complete medium (20 uL to provide 0.2 μCi/well) is then added to each well and the plate is incubated for a third 24 hr period at 37° C. in an atmosphere containing 5% CO2. The plate contents are then discarded, the plate is washed twice with PBS (200 μL) and then PBS (200 μL) is added to each well. The plate is sealed and the degree of methyl ^14C-thymidine incorporation is quantified on a Packard Top Count.
as §3
(§8) For a series of test concentrations, the IC50 was derived by graphing percent inhibition against the log of the concentrations tested for a given compound with results shown in Table 3.

A375 malignant melanoma = assay: Cell proliferation inhibition assay (14C-thymidine incorporation), A375; format: cell-based; conditions: Homo sapiens, A-375, A375 cells
From the text: as §4, §5, §6, §7, §3, §8

[2] = target: T2, murine Aurora-A (polyhistidine fusion, full length) (Mus musculus, UniProt P97477); assay: Aurora-A screening assay (33P-ATP FlashPlate); format: biochemical; conditions: 10 μM ATP, 1 hr at 30° C.
T2 construct: followed by the full length protein encoding the murine Aurora-A; polyhistidine (N); made in house; host or cells: sf9 insect cells
T2 sequence (P97477 1-395): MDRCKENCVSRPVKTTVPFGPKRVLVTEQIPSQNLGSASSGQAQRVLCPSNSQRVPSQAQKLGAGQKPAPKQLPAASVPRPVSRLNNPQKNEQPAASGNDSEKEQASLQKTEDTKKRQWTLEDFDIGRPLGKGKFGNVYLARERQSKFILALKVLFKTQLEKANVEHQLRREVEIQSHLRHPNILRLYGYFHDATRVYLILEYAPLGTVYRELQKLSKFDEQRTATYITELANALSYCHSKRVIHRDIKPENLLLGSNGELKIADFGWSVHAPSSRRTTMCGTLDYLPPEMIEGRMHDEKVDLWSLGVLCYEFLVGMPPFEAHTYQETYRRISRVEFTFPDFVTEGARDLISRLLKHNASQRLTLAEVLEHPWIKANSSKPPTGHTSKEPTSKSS
Procedure: (§9) 70 μL of the kinase reaction mixture was dispensed into the well of a streptavidin coated FlashPlate™ (Cat. # SMP103, NEN, Boston, Mass.).
as §2
Aurora-A is a fusion protein containing a polyhistidine tag at the N terminus followed by the full length protein encoding the murine Aurora-A (Accession number GB BC014711) expressed and purified from sf9 insect cells. The assay used 400 ng of the N-terminal biotinylated peptide biotin-[…]-amide (Aurora-A) per well.
as §3

[3] = tested on: HeLa cervical adenocarcinoma; assay: Cell proliferation inhibition assay (14C-thymidine incorporation), HeLa; format: cell-based; conditions: Homo sapiens, HeLa cells
From the text: as §4, §5, §6, §7, §3, §8

[4] = target: T3, human CDK1 catalytic subunit and cyclin B (Homo sapiens, UniProt P06493); assay: CDK1 screening assay (33P-ATP FlashPlate); format: biochemical; conditions: 10 μM ATP, 1 hr at 30° C.
T3 construct: purchased New England Biolabs, Beverly, Mass; 6020; host or cells: insect cells
T3 sequence (P06493 whole entry): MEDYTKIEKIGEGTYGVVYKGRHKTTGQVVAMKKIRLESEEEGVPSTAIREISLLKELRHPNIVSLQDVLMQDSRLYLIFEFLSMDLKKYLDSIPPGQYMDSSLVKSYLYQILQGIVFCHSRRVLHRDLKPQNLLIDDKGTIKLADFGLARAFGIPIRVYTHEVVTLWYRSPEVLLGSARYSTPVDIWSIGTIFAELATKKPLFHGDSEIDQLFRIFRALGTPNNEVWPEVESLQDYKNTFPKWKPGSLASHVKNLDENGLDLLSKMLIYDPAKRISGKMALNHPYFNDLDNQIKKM
T3 sequence (P14635 whole entry partner): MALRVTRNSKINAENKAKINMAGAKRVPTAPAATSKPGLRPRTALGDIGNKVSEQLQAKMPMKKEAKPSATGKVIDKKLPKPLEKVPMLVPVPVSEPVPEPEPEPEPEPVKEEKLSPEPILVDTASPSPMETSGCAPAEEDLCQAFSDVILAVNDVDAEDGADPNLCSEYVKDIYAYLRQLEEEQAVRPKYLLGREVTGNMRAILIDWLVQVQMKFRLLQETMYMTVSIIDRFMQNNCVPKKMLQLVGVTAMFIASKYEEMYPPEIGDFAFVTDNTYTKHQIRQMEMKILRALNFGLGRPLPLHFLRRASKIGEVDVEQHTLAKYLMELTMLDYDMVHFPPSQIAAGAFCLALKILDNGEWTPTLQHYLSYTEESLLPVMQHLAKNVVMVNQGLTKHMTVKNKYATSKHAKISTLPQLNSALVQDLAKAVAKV
Procedure: as §1, §2
The CDK1 enzyme was isolated from insect cells expressing both the human CDK1 catalytic subunit (Accession number NM_001786) and its positive regulatory subunit cyclin B (New England Biolabs, Beverly, Mass.; Cat. #6020). The assay used 30 ng of the N-terminal biotinylated peptide biotin-[…]-amide (Cyclin dependent kinase 1) per well.
as §3
For a series of test concentrations, the IC50 was derived by graphing percent inhibition against the log of the concentrations tested for a given compound with results shown in Table 1.

[5] = target: T4, rat VEGF-R2 kinase domain (polyhistidine fusion, amino acids 786 to 1343) (Rattus norvegicus, UniProt O08775); assay: VEGFR2 screening assay (33P-ATP FlashPlate); format: biochemical; conditions: 10 μM ATP, 1 hr at 30° C.
T4 construct: amino acids 786 to 1343 of the rat VEGF-R2 kinase domain; polyhistidine (N)
T4 sequence (O08775 786-1343): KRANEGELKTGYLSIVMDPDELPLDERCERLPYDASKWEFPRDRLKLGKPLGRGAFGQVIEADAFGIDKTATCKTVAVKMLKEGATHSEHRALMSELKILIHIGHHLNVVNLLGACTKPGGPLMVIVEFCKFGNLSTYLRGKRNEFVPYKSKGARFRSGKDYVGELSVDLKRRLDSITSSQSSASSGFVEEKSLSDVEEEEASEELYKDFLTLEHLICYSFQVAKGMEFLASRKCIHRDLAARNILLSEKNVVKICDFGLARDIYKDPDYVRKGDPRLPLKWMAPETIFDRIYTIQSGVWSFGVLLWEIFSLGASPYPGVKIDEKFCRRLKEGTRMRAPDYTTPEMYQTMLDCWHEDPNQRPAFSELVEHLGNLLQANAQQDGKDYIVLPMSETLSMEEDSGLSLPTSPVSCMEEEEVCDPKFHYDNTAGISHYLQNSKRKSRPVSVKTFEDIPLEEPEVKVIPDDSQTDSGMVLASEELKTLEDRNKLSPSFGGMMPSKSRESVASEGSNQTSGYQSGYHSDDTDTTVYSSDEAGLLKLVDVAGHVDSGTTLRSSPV
Procedure: as §9, §2
The assay used 150 ng of the N-terminal biotinylated peptide biotin-[…]-amide (VEGF-R2) per well.
as §3

For `CCNCc1cncc(/C=C/c2c[nH]nc2-c2nc(C(F)(F)F)c[nH]2)c1` [Cpd 1, ethyl-(5-{2-[3-(4-trifluoromethyl-1H-imidazol-2-yl)-1H-pyrazol-4-yl]-vinyl}-pyridin-3-ylmethyl)-amine], the IC50 [1] was greater than 100 µM, the IC50 (HCT-116 colon carcinoma) was 1.75 µM and the IC50 (A375 malignant melanoma) was 7.44 µM. For the same compound, the IC50 [2] was greater than 10000 nM, the IC50 [3] was 3.18 µM and the IC50 [4] was 18 nM. For the same compound, the IC50 [5] was roughly 10 µM.
`FC(F)(F)c1c[nH]c(-c2n[nH]cc2/C=C/c2cccnc2)n1` [Cpd 2, 3-{2-[3-(4-trifluoromethyl-1H-imidazol-2-yl)-1H-pyrazol-4-yl]-vinyl}-pyridine] gave an IC50 [1] greater than 100 µM, an IC50 (HCT-116 colon carcinoma) of 23.8 µM and an IC50 (A375 malignant melanoma) of 46.5 µM. For the same compound, the IC50 [2] was 117 nM, the IC50 [3] was greater than 10 µM and the IC50 [4] was 483 nM. The IC50 [5] was 29.4 µM.
For `N#Cc1c[nH]c(-c2n[nH]cc2/C=C/c2cccnc2)n1` [Cpd 3, 2-[4-(2-pyridin-3-yl-vinyl)-1H-pyrazol-3-yl]-1H-imidazole-4-carbonitrile], the IC50 [1] was greater than 100 µM, the IC50 (HCT-116 colon carcinoma) was 70.7 µM and the IC50 (A375 malignant melanoma) was greater than 10 µM. It also gave an IC50 [2] greater than 10000 nM, an IC50 [3] greater than 10 µM and an IC50 [4] of 704 nM. It also gave an IC50 [5] greater than 10 µM.
`FC(F)(F)c1cnc(-c2n[nH]cc2C=Cc2cncc3ccccc23)[nH]1` [Cpd 4, 4-{2-[3-(4-trifluoromethyl-1H-imidazol-2-yl)-1H-pyrazol-4-yl]-vinyl}-isoquinoline] was tested, and the IC50 (HCT-116 colon carcinoma) was 2.92 µM, the IC50 (A375 malignant melanoma) was 5.59 µM and the IC50 [2] was 297 nM. The IC50 [3] was 3.58 µM, the IC50 [4] was 113 nM and the IC50 [5] was 3.06 µM.
